Several values for one entry are separate records, joined by “and”; a condition that tells them apart may be missing. Equal entries are not always repeated. Where two headings read alike, the source gives them in different places.
Tests used:
[1] = Oral bioavailability studies in dogs (plasma concentration by bioassay); type: in vivo; conditions: dog, plasma
Method: The bioavailability in marmosets and dogs was determined by sampling the blood via the femoral vein at various time points after administering the renin inhibitor compounds of the invention in polyethylene glycol 400 at an intragastric dose of 10 mg/kg or at an intravenous dose of 1 mg/kg. Compound concentration in plasma was determined using the bioassay technique described below. The percent bioavailability was calculated by dividing the area under the concentration-vs.-time curve obtained from the intragastric experiment by the area under the concentration-vs.-time curve obtained from the intravenous experiment (adjusting for different doses), and multiplying the result by 100%. The bioavailibility of Example 1 compound is 27% in marmosets and 33% in dogs.
Renin inhibitor plasma concentrations were determined by a bioassay. The plasma samples were extracted with acetonitrile and the extract was evaporated to dryness under nitrogen. Residue was dissolved in 4% bovine serum albumin containing 0.9% NaCl and 5% EDTA. The dissolved residue (0.1 ml) was incubated with a reaction mixture containing human plasma (0.12 ml), 5% phenylmethysulfonylfluoride (1.2 ul), 10% neomycin (2.4 ul), 0.5 M TES buffer (pH 7.4, 24 ul), and 0.6 mU/ml recombinant human renin (1000 U/mg, 50 ul) at 37° C. for 90 minutes. The renin activity was determined by a standard angiotensin I radioimmunoassay (New England Nuclear Corp.). The amount of test compound in the plasma was determined by comparing the extent of inhibition of renin activity with that produced by a known amount of test compound added to plasma and analyzed above.

[2] = test system: Plasma Renin Activity (PRA); test: Marmoset plasma renin activity (PRA) reduction on oral administration; type: in vivo, Marmoset monkeys (Callithrix jacchus); conditions: 0.1 MPK, IG; for inhibition at 0.1 mg/kg: Primates, po
Method: The oral activity of renin inhibitor compounds was determined in vivo in Marmoset monkeys using the following procedure. Common Marmoset monkeys (Callithrix jacchus, Charles River, both sexes, body weight 300-400 g) were placed on a modified high-protein low-sodium diet (Purina, St. Louis, Mo.) for 1 week. About 24 hours prior to the administration of test compound, Lasix (5 mg/kg, im) was given. On the day of the test, the animal was anesthetized with isoflurane, body weight recorded, and a baseline blood sample taken. Then, test compound was given intragastrically and blood samples were taken in K-EDTA for plasma renin activity at appropriate time intervals. The PRA was determined by using the protocol outlined below. Results are expressed in terms of PRA at various time intervals both before and after compound administrations (“Pre” means pretreatment levels before compound administrations). Also included is percent inhibition (% INH from pretreatment levels).
I. Angiotensin I Generation
25 ml of the above reaction mixtures, in duplicate, were incubated at 37° C. or 0° C. for 2 hours.
II. Determination of Angiotensin I Concentrations
Angiotensin I (AI) concentrations were determined by radioimmunoassays with a commercial kit from NEN Co.
III. Calculation of Plasma Renin Activity
PRA (ng AI/ml/hr)=(AI at 37°−AI at 0°)/2 hr.

[3] = iv, 1 mg/kg, IV at 1 mg/kg, individual animals, read-out: Estimated Plasma Concentration
[4] = iv, 1 mg/kg, IV at 1 mg/kg, read-out: Estimated Plasma Concentration, Mean ± SE
[5] = oral, 10 mg/kg, IG at 10 mg/kg, read-out: Estimated Plasma Concentration, Mean ± SE
[6] = oral, 10 mg/kg, IG at 10 mg/kg, individual animals, read-out: Estimated Plasma Concentration

C#CC[C@H](NC(=O)C(CC(=O)N(C)CCN(C)C)Cc1ccccc1)C(=O)NC(CC1CCCCC1)[C@@H](O)C(O)CC(C)C (relative stereo) [Example 1, N1-[1R*-[[[1S,1R*-(cyclohexylmethyl)-2S*,3R*-dihydroxy-5-methylhexyl]amino]carbonyl]-3-butynyl]-N4-[2-(dimethylamino)ethyl]-N4-methyl-2S*-(phenylmethyl)butanediamide]
concentration at 10 min [1, 3]: 299 ng/mL | concentration at 10 min [1, 4]: 275 ± 28.4 ng/mL | concentration at 15 min [1, 3]: 218 ng/mL | concentration at 15 min [1, 4]: 170 ± 24.1 ng/mL | concentration at 30 min [1, 3]: 145 ng/mL | concentration at 30 min [1, 4]: 123 ± 12.1 ng/mL | concentration at 1 h [1, 3]: 70.4 ng/mL | concentration at 1 h [1, 4]: 62.7 ± 6.4 ng/mL | concentration at 2 h [1, 3]: 48.8 ng/mL | concentration at 2 h [1, 4]: 58.2 ± 6.2 ng/mL | concentration at 4 h [1, 3]: 18.6 ng/mL | concentration at 4 h [1, 4]: 21.9 ± 1.6 ng/mL | concentration at 6 h [1, 3]: 10.1 ng/mL | concentration at 6 h [1, 4]: 11.3 ± 1.1 ng/mL | concentration at 8 h [1, 3]: 6.4 ng/mL | concentration at 8 h [1, 4]: 5.8 ± 0.5 ng/mL | concentration at 24 h [1, 3]: 2.5 ng/mL | concentration at 24 h [1, 4]: 1.8 ± 0.4 ng/mL | concentration at 15 min [1, 5]: 128 ± 77.2 ng/mL | concentration at 30 min [1, 5]: 564 ± 158 ng/mL | concentration at 1 h [1, 6]: 678 ng/mL | concentration at 1 h [1, 5]: 799 ± 60.5 ng/mL | concentration at 2 h [1, 6]: 599 ng/mL | concentration at 2 h [1, 5]: 502 ± 75.8 ng/mL | concentration at 4 h [1, 6]: 123 ng/mL | concentration at 4 h [1, 5]: 110 ± 20.9 ng/mL | concentration at 6 h [1, 6]: 66.9 ng/mL | concentration at 6 h [1, 5]: 62.1 ± 7.7 ng/mL | concentration at 8 h [1, 6]: 33.5 ng/mL | concentration at 8 h [1, 5]: 34.8 ± 5.8 ng/mL | concentration at 24 h [1, 6]: 6.2 ng/mL | concentration at 24 h [1, 5]: 7.5 ± 0.7 ng/mL | bioavailability ([1]; oral, dogs, IG 10 mg/kg vs IV 1 mg/kg): 33% | Vd ([1]; read-out: Vd, Mean ± SE): 9.5 ± 1 L/kg | half-life ([1]; read-out: t1/2, Mean ± SE (converted)): 4.7 ± 0.3 h | % INH (from pretreatment PRA) ([2]; 60 min, individual monkeys): 76.6% and 95.6% | PRA ([2]; 60 min from dosing, individual monkeys): 2.8 ngAI/ml/hr and 16.4 ngAI/ml/hr and 4 ngAI/ml/hr | % INH (from pretreatment PRA) ([2]; 120 min, individual monkeys): 91.1% and 71.5% and 94.2% | PRA ([2]; 120 min from dosing, individual monkeys): 4.1 ngAI/ml/hr and 20 ngAI/ml/hr and 5.2 ngAI/ml/hr | % INH (from pretreatment PRA) ([2]; 240 min, individual monkeys): 89.8% and 67.8% and 45% | PRA ([2]; 240 min from dosing, individual monkeys): 9.2 ngAI/ml/hr and 14.8 ngAI/ml/hr and 38.7 ngAI/ml/hr | PRA ([2]; Pre (pretreatment level), individual monkeys): 45.8 ngAI/ml/hr and 70.2 ngAI/ml/hr and 90.1 ngAI/ml/hr | inhibition at 0.1 mg/kg ([2]; 60 min, individual monkeys, read-out: % INH (from pretreatment PRA)): 93.8% | inhibition at 0.1 mg/kg ([2]; 1 h, 60 min, mean of monkeys A-C, read-out: MEAN % INH): 88.7 ± 6% | inhibition at 0.1 mg/kg ([2]; 2 h, 120 min, mean of monkeys A-C, read-out: MEAN % INH): 85.6 ± 7% | inhibition at 0.1 mg/kg ([2]; 4 h, 240 min, mean of monkeys A-C, read-out: MEAN % INH): 67.5 ± 13%
